{
  "source": "patent US4927565A",
  "about": "“5-substituted amino-4-hydroxy-pentenoic acid derivatives and their use” (Banyu Pharmaceutical Co., Ltd., priority 1986, dated 1990)",
  "data": [
    {"target": "T1, Human plasma renin (Homo sapiens, UniProt P00797)", "T1 construct": "from tissue; host or cells: human plasma", "T1 sequence (P00797 67-406)": "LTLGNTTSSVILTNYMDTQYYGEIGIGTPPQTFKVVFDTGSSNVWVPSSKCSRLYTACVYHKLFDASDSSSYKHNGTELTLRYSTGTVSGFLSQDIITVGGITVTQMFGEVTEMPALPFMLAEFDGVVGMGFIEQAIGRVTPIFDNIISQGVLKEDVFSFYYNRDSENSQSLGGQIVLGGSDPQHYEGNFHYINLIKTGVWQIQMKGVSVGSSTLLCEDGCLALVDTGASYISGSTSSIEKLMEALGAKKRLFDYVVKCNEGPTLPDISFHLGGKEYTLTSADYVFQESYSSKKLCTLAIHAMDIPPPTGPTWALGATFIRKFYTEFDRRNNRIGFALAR", "experiment": "Human plasma renin inhibiting activities (angiotensin I measured by radio immunoassay)", "type": "biochemical", "settings": "pH7.4, 37° C., one hour, read-out: 50% inhibition concentration IC50", "protocol": "To 156 μl of a 0.2M sodium phosphate buffer solution (pH7.4), 40 μl of a solution mixture of 43 mM 8-hydroxyquinoline and 100 mM disodium ethylenediamine tetraacetate, 4 μl of dimethyl sulfoxide or a dimethyl sulfoxide solution of an inhibitor and 200 μl of human plasma were added and reacted at 37° C. for one hour. Then, pepstatin was added thereto to terminate the reaction, and the amount of the resulting angiotension I was measured by radio immunoassay whereby the inhibiting activity was determined.", "units": {"IC50": "nM"}, "values": [
      {"smiles": "CCCC[C@H](NC(=O)[C@H](Cc1cccc2ccccc12)NC(=O)OCc1ccccc1)C(=O)N[C@@H](CC(C)C)[C@@H](O)/C=C/C(=O)NCC(C)C", "note": "[Compound A, (4S,5S)-5-(L-N-benzyloxycarbonylnaphthylalanyl-L-norleucyl)amino-4-hydroxy-7-methyl-2(E)-octenoic acid isobutylamide]", "IC50": 1400},
      {"smiles": "CCCC[C@H](NC(=O)[C@H](Cc1cccc2ccccc12)NC(=O)OCc1ccccc1)C(=O)N[C@@H](CC(C)C)[C@@H](O)/C=C(\\CC)C(=O)NCC(C)C", "note": "[Compound B, (4S,5S)-5-(L-N-benzyloxycarbonylnaphthylalanyl-L-norleucyl)amino-4-hydroxy-2-ethyl-7-methyl-2(E)-octenoic acid isobutylamide]", "IC50": 19},
      {"smiles": "CCCC[C@H](NC(=O)[C@H](Cc1cccc2ccccc12)NC(=O)OCc1ccccc1)C(=O)N[C@@H](CC(C)C)[C@@H](O)/C=C(/CC)C(=O)NCC(C)C", "note": "[Compound C, (4S,5S)-5-(L-N-benzyloxycarbonylnaphthylalanyl-L-norleucyl)amino-2-ethyl-4-hydroxy-7-methyl-2(Z)-octenoic acid isobutylamide]", "IC50": 67},
      {"smiles": "CCCC[C@H](NC(=O)[C@H](Cc1cccc2ccccc12)NC(=O)OCc1ccccc1)C(=O)N[C@@H](CC(C)C)[C@@H](O)/C=C(\\CCC)C(=O)NCC(C)C", "note": "[Compound D, (4S,5S)-5-(L-N-benzyloxycarbonylnaphthylalanyl-L-norleucyl)amino-4-hydroxy-2-propyl-7-methyl-2(E)-octenoic acid isobutylamide]", "IC50": 120},
      {"smiles": "CCCC[C@H](NC(=O)[C@H](Cc1cccc2ccccc12)NC(=O)OCc1ccccc1)C(=O)N[C@@H](CC(C)C)[C@@H](O)/C=C(/CCC)C(=O)NCC(C)C", "note": "[Compound E, (4S,5S)-5-(L-N-benzyloxycarbonylnaphthylalanyl-L-norleucyl)amino-4-hydroxy-2-propyl-7-methyl-2(Z)-octenoic acid isobutylamide]", "IC50": 310},
      {"smiles": "CCCC[C@H](NC(=O)[C@H](Cc1cccc2ccccc12)NC(=O)OCc1ccccc1)C(=O)N[C@@H](CC(C)C)[C@@H](O)/C=C(/C(=O)NCC(C)C)C(C)C", "note": "[Compound F, (4S,5S)-5-(L-N-benzyloxycarbonylnaphthylalanyl-L-norleucyl)amino-4-hydroxy-2-isopropyl-7-methyl-2(E)-octenoic acid isobutylamide]", "IC50": 150},
      {"smiles": "CCCC[C@H](NC(=O)[C@H](Cc1cccc2ccccc12)NC(=O)OCc1ccccc1)C(=O)N[C@@H](CC(C)C)[C@@H](O)/C=C(\\C(=O)NCC(C)C)C(C)C", "note": "[Compound G, (4S,5S)-5-(L-N-benzyloxycarbonylnaphthylalanyl-L-norleucyl)amino-4-hydroxy-2-isopropyl-7-methyl-2(Z)-octenoic acid isobutylamide]", "IC50": 260},
      {"smiles": "CCCC[C@H](NC(=O)[C@H](Cc1cccc2ccccc12)NC(=O)OCc1ccccc1)C(=O)N[C@@H](CC(C)C)[C@@H](O)/C=C(\\CCCO)C(=O)NCC(C)C", "note": "[Compound H, (4S,5S)-5-(L-N-benzyloxycarbonylnaphthylalanyl-L-norleucyl)-amino-4-hydroxy-2-(3-hydroxypropyl)-7-methyl-2(E)-octenoic acid isobutylamide]", "IC50": 160}
    ]}
  ]
}
